Measured values: patent EP0109362A1, “Hetereocyclic compounds, process for their preparation, pharmaceutical compositions containing them and their use” (CIBA-GEIGY AG, priority 1982, dated 1984)
Converted amounts (≈) assume the structure as drawn. Where two headings read alike, the source gives them in different places.

Legend:
[1] = system: Proteus morganii 1518; assay: in vitro antibacterial test (MIC); assay type: cell-based; conditions: Morganella morganii
[2] = system: Clostridium perfringens 194; assay: microbe, parasite or virus in culture; assay type: cell-based
[3] = system: Neisseria meningitidis 1316; assay: in vitro antibacterial test (MIC); assay type: cell-based
[4] = system: Escherichia coli 205 R+TEM; assay: in vitro antibacterial test (MIC); assay type: cell-based
[5] = system: Proteus mirabilis 774; assay: in vitro antibacterial test (MIC); assay type: cell-based
[6] = system: Proteus mirabilis 1219; assay: in vitro antibacterial test (MIC); assay type: cell-based
[7] = system: Proteus morganii 2359; assay: in vitro antibacterial test (MIC); assay type: cell-based; conditions: Morganella morganii
[8] = system: Bacteroides fragilis L 01; assay: in vitro antibacterial test (MIC); assay type: cell-based; conditions: L01
[9] = system: Enterobacter cloacae P 99; assay: in vitro antibacterial test (MIC); assay type: cell-based; conditions: P99
[10] = system: Staphylococcus aureus 10 B; assay: in vitro antibacterial test (MIC); assay type: cell-based
[11] = system: Streptococcus faecalis D 3; assay: in vitro antibacterial test (MIC); assay type: cell-based; conditions: Enterococcus faecalis, D3
[12] = system: Escherichia coli UB 1005; assay: in vitro antibacterial test (MIC); assay type: cell-based; conditions: UB1005; Escherichia coli UB 1005, in vitro
Text: (§1) Die Verbindungen der Formel I weisen wertvolle pharmakologische Eigenschaften auf, oder können als Zwischenprodukte zur Herstellung von solchen Verbindungen mit wertvollen pharmakologischen Eigenschaften verwendet werden. Verbindungen der Formel I, worin R1 Wasserstoff oder Methyl ist, Rz Hydroxybedeutet, R3 Carboxyl oder eine unter physiologischen Bedingungen spaltbare veresterte Carboxylgruppe bedeutet und R4 die unter Formel I angegebene Bedeutung hat, und pharmakologisch verwendbare Salze von solchen Verbindungen mit salzbildenden Gruppen haben antibakterielle Wirkungen. Beispielsweise sind sie in vitro gegen grampositive und gramnegative Kokken, z.B. Staphylococcus aureus, Streptococcus pyogenes, Streptococcus pneumoniae, Streptococcus faecalis, Neisseria meningitidis und Neisseria gonorrhoeae, und gegen gramnegative Stäbchenbakterien, wie Enterobacteriaceae, Haemophilus influenzae und Pseudomonas aeruginosa, und Anaerobier, z.B. Bacteroides sp., in minimalen Konzentrationen von ca. 0,01 bis ca. 64 µg/ml wirksam. In vivo, bei der systemischen Infektion der Maus, z.B. durch Staphylococcus aureus oder Streptococcus pyogenes, ergeben sich bei subkutaner oder oraler Applikation ED50 -Werte von ca. 0,3 bis ca. 30 mg/kg. Beispielsweise weisen Natrium-(5R,6S)-2-[3-(2-methyl-tetrazol-5-yl)-propyl]-6-hydroxymethyl-2-penem 3-carboxylat (Verbindung A) und (5R,65)-2-[3-(2-Methyl-1,3,4-oxadiazo1-5-yl)-propyl]-6-hydroxymethyl-2-penem-3-carbonsäure (Verbindung B) in dem genannten in-vitro-Test die folgenden Werte auf: […]

[13] = system: Escherichia coli DC 2; assay: in vitro antibacterial test (MIC); assay type: cell-based; conditions: DC2; Escherichia coli DC 2, in vitro
Text: as §1

[14] = system: Klebsiella pneumoniae 327; assay: in vitro antibacterial test (MIC); assay type: cell-based
[15] = system: Streptococcus pyogenes Aronson; assay: in vitro antibacterial test (MIC); assay type: cell-based
[16] = system: Pseudomonas aeruginosa K 799/61; assay: in vitro antibacterial test (MIC); assay type: cell-based; conditions: K799/61
[17] = system: Escherichia coli 16; assay: in vitro antibacterial test (MIC); assay type: cell-based
[18] = system: Pseudomonas aeruginosa ATCC 12055; assay: in vitro antibacterial test (MIC); assay type: cell-based; conditions: ATCC12055
[19] = system: Neisseria gonorrhoeae 1317-4; assay: in vitro antibacterial test (MIC); assay type: cell-based; conditions: 13174
[20] = system: Streptococcus pneumoniae III/84; assay: in vitro antibacterial test (MIC); assay type: cell-based
[21] = system: Escherichia coli 205; assay: in vitro antibacterial test (MIC); assay type: cell-based
[22] = system: Proteus rettgeri 856; assay: in vitro antibacterial test (MIC); assay type: cell-based; conditions: Providencia rettgeri
[23] = system: Staphylococcus aureus lOB; assay: systemic infection of the mouse (ED50); assay type: in vivo, Maus; conditions: sc
Text: as §1, with “mg/kg.” for “mg/kg. Beispielsweise weisen Natrium-(5R,6S)-2-[3-(2-methyl-tetrazol-5-yl)-propyl]-6-hydroxymethyl-2-penem 3-carboxylat (Verbindung A) und (5R,65)-2-[3-(2-Methyl-1,3,4-oxadiazo1-5-yl)-propyl]-6-hydroxymethyl-2-penem-3-carbonsäure (Verbindung B) in dem genannten in-vitro-Test die folgenden Werte auf:”

[24] = system: Staphylococcus aureus 2999i+p+; assay: in vitro antibacterial test (MIC); assay type: cell-based
[25] = system: Haemophilus influenzae NCTC 4560; assay: in vitro antibacterial test (MIC); assay type: cell-based; conditions: NCTC4560
[26] = system: Serratia marcescens 344; assay: in vitro antibacterial test (MIC); assay type: cell-based

## Cn1nnc(CCCC2=C(C(=O)[O-])N3C(=O)[C@H](CO)[C@H]3S2)n1.[Na+] [Verbindung A, Natrium-(5R,6S)-2-[3-(2-methyl-tetrazol-5-yl)-propyl]-6-hydroxymethyl-2-penem 3-carboxylat]
[1]; 1518
  MIC: 16 µg/mL
[2]
  MIC: 0.2 µg/mL
[3]; Neisseria meningitidis, 1316
  MIC: 0.01 µg/mL
[4]
  MIC: 8 µg/mL
[5]; Proteus mirabilis, 774
  MIC: 4 µg/mL
[6]; Proteus mirabilis, 1219
  MIC: 8 µg/mL
[7]; 2359
  MIC: 2 µg/mL
[8]; Bacteroides fragilis
  MIC: 0.5 µg/mL
[9]
  MIC: 32 µg/mL
[10]; Staphylococcus aureus, 10B
  MIC: 0.2 µg/mL
[11]
  MIC: 32 µg/mL
[12]
  MIC: 8 µg/mL
[13]
  MIC: 2 µg/mL
[14]; Klebsiella pneumoniae, 327
  MIC: 4 µg/mL
[15]; Streptococcus pyogenes
  MIC: 0.2 µg/mL
[16]
  MIC: 2 µg/mL
[17]; Escherichia coli, 16
  MIC: 32 µg/mL
[18]; Pseudomonas aeruginosa
  MIC: > 128 µg/mL
[19]; Neisseria gonorrhoeae
  MIC: 0.01 µg/mL
[20]; Streptococcus pneumoniae
  MIC: 0.05 µg/mL
[21]; Escherichia coli, 205
  MIC: 4 µg/mL
[22]; 856
  MIC: 16 µg/mL
[23]; Staphylococcus aureus
  ED50: 3 to 10 mg/kg
[24]; Staphylococcus aureus
  MIC: 0.2 µg/mL
[25]; Haemophilus influenzae
  MIC: 2 µg/mL
[26]; Serratia marcescens, 344
  MIC: 64 µg/mL

## Cc1nnc(CCCC2=C(C(=O)O)N3C(=O)[C@H](CO)[C@H]3S2)o1 [Verbindung B, (5R,65)-2-[3-(2-Methyl-1,3,4-oxadiazo1-5-yl)-propyl]-6-hydroxymethyl-2-penem-3-carbonsäure]
[1]; Proteus morganii 1518, in vitro, read-out: MIC
  MIC: 8 µg/mL (≈ 24.6 µM)
[2]
  MIC: 0.1 µg/mL (≈ 0.307 µM)
[3]; Neisseria meningitidis 1316, in vitro, read-out: MIC
  MIC: 0.05 µg/mL (≈ 0.154 µM)
[4]
  MIC: 4 µg/mL (≈ 12.3 µM)
[5]; Proteus mirabilis 774, in vitro, read-out: MIC
  MIC: 2 µg/mL (≈ 6.15 µM)
[6]; Proteus mirabilis 1219, in vitro, read-out: MIC
  MIC: 4 µg/mL (≈ 12.3 µM)
[7]; Proteus morganii 2359, in vitro, read-out: MIC
  MIC: 2 µg/mL (≈ 6.15 µM)
[8]; Bacteroides fragilis L 01, in vitro, read-out: MIC
  MIC: 0.5 µg/mL (≈ 1.54 µM)
[9]
  MIC: 16 µg/mL (≈ 49.2 µM)
[10]; Staphylococcus aureus 10 B, in vitro, read-out: MIC
  MIC: 0.2 µg/mL (≈ 0.615 µM)
[11]; Streptococcus faecalis D 3, in vitro, read-out: MIC
  MIC: 32 µg/mL (≈ 98.4 µM)
[12]
  MIC: 2 µg/mL (≈ 6.15 µM)
[13]
  MIC: 1 µg/mL (≈ 3.07 µM)
[14]; Klebsiella pneumoniae 327, in vitro, read-out: MIC
  MIC: 2 µg/mL (≈ 6.15 µM)
[15]; Streptococcus pyogenes Aronson, in vitro, read-out: MIC
  MIC: 0.1 µg/mL (≈ 0.307 µM)
[16]
  MIC: 2 µg/mL (≈ 6.15 µM)
[17]; Escherichia coli 16, in vitro, read-out: MIC
  MIC: 16 µg/mL (≈ 49.2 µM)
[18]; Pseudomonas aeruginosa ATCC 12055, in vitro, read-out: MIC
  MIC: > 32 µg/mL
[19]; Neisseria gonorrhoeae 1317-4, in vitro, read-out: MIC
  MIC: 0.01 µg/mL (≈ 0.0307 µM)
[20]; Streptococcus pneumoniae III/84, in vitro, read-out: MIC
  MIC: 0.05 µg/mL (≈ 0.154 µM)
[21]; Escherichia coli 205, in vitro, read-out: MIC
  MIC: 1 µg/mL (≈ 3.07 µM)
[22]; Proteus rettgeri 856, in vitro, read-out: MIC
  MIC: 4 µg/mL (≈ 12.3 µM)
[23]; mouse, systemic infection by Staphylococcus aureus lOB, subcutaneous application, read-out: ED50
  ED50: 0.3 to 30 mg/kg
[24]; Staphylococcus aureus 2999i+p+, in vitro, read-out: MIC
  MIC: 0.2 µg/mL (≈ 0.615 µM)
[25]; Haemophilus influenzae NCTC 4560, in vitro, read-out: MIC
  MIC: 2 µg/mL (≈ 6.15 µM)
[26]; Serratia marcescens 344, in vitro, read-out: MIC
  MIC: 16 µg/mL (≈ 49.2 µM)
